Data: patent US12121525B2, “Methods for treating GI syndrome and graft versus host disease” (Sloan Kettering Institute for Cancer Research, priority 2007, dated 2024)

Experiments:
[1] = tested on: C57BL/6 splenocytes; experiment: Platform generation on target splenocytes coincubated with MLR-primed CTLs; details: 500 nM
[2] = tested on: C57BL/6 hepatocytes; type: cell-based
Procedure: FIGS. 16A-16F. In vivo activated allogeneic CTLs require target hepatocyte ASMase for efficient killing ex vivo. Hepatocytes, isolated as described in Example 1, were coincubated with splenic T cells harvested from lethally-irradiated wild type C57BL/6 recipients 10-14 days following transplantation of LP BM+T cells. FIG. 16A: 2×10^6 GvH-activated CTLs were coincubated with 0.5×10^6 wild type C57BL/6 or B6.MRL.1pr (FasR^−/−) hepatocytes (left panel) in complete medium for 16 hr. […] Apoptosis was quantified following fixation by nuclear bisbenzimide staining. FIG. 16B: asmase^−/− hepatocytes are resistant to apoptosis induced by GvH-activated CTLs. CTL coincubation was performed as in FIG. 16A and apoptosis was quantified 16 hr thereafter. FIG. 16C: Representative images of asmase^+/+ (top left panel) and asmase^−/− (bottom left panel) C57BL/6 hepatocytes following 10 min coincubation in suspension with 2×10^6 GvH-activated T cells. Hepatocytes were fixed and stained with DAPI and Cy-3-labelled anti-ceramide mAb as described in Example 1. Arrows indicate ceramide-rich platform generation on the outer leaflet of the plasma membrane. […] FIG. 16D: Quantification of ceramide-rich platforms in asmase^+/+ and asmase^−/− hepatocytes following incubation with 2×10^6 GvH-activated CTLs. […] Apoptosis was quantified as in FIG. 16A. […] 0.5×10^6 wild type hepatocytes, preincubated with 50 μg/mL nystatin for 30 min and resuspended in RPMI containing 1% lipid-free FBS, were coincubated with 2×10^6 GvH-activated T cells and apoptosis was quantified as in FIG. 16A. […]
To assess whether ceramide-mediated raft clustering into membrane platforms is an essential component of cytolytic T cell (CTL)-induced apoptosis of hepatocytes, we blocked raft clustering pharmacologically and examined the impact on alloactivated CTL-induced hepatocyte apoptosis in vitro. […] Co-incubation induced increased hepatocyte apoptosis from a baseline of 4.7±0.7% to 33.8±1.9% by 16 hr, as detected by nuclear morphologic changes (FIG. 16A). […]

[3] = tested on: C57BL/6 splenocytes; experiment: MLR-primed CTL-induced splenocyte lysis (51Cr release); type: cell-based, mouse; details: 500 nM
Procedure: To show the generic role of target cell ASMase in T cell-induced lysis, we used two standardized assays for T cell function; MLR-primed CTL-induced splenocyte lysis (FIG. 17) and in vitro activation-induced cell death (AICD) of T cells (FIG. 18). The role of target cell ASMase was assessed in an in vitro activated MLR, in which C57BL/6 splenocyte target cells of asmase^+/+ or asmase^−/− genotype were stimulated for 48 hrs with mitogen, washed and chromium labeled. These cells were then coincubated with effector Balb/c splenocytes activated for 5 days by culture with irradiated C57BL/6 splenocytes. Chromium release was quantified and the % lysis was calculated. […] Washed splenocytes cells were coincubated with increasing ratios of activated effector Balb/c T cells, and ^51Cr release was quantified 6 hour thereafter. […]
To evaluate a potential generic role for target cell ASMase in platform generation in T cell-induced lysis, we tested two standardized assays for T cell-mediated cytolysis, MLR-primed CTL-induced splenocyte lysis, and in vitro AICD of T cells. […] Furthermore, MLR-primed CTLs induced 43.2±6.5% asmase^+/+ splenocyte lysis at an effector:target ratio of 50:1 (FIG. 19B), attenuated to 7.3±2.5% lysis in asmase^−/− target cells, as quantified by ^51Cr-release assay. […]

SMILES: CCCCCCCCCCCCC/C=C/[C@@H](O)[C@H](CO)NC(=O)CCCCCCCCCCCCCCC [C16-ceramide]
- platform generation on asmase−/− target splenocytes [1]: restored
- rescue of CTL-induced apoptosis in nystatin-treated hepatocytes [2]: unable to overcome cholesterol chelation
- CTL-induced lysis of asmase−/− target splenocytes [3]: restored
